# Assay results: publication PMC2009657, “Mammalian cell transformation in vitro. Six tests for carcinogenicity” (British Journal of Cancer, 1978)
# Tested on: tester cells of the transformation assay
# Settings: not given
row,Molecule,Toxicity in the assay
1,C=CCl [Vinyl chloride],No toxicity observe(d

# Tested on: not given
# Settings: in vivo; cited from earlier work
row,Molecule,"Carcinogenicity, Lit."
1,Nc1ccc(Cc2ccc(N)c(Cl)c2)cc1Cl,+
2,"c1ccc2cc3c(ccc4ccccc43)cc2c1 [1,2-Benzanthracene]",+
3,Oc1cccc2ccccc12 [1-Naphthol],-
4,"O=C(O)COc1ccc(Cl)cc1Cl [2,4-Dichlorophenoxyacetate]",-
5,"O=[N+]([O-])c1ccc(F)c([N+](=O)[O-])c1 [2,4-Dinitrofluorobenzene]",+
6,"Nc1ccc2c(c1)Cc1cc(N)ccc1-2 [2,7-Diaminofluorene]",+
7,CC(=O)Nc1ccc2c(c1)Cc1ccccc1-2 [2-Acetylaminofluorene],+
8,Nc1ccccc1-c1ccccc1 [2-Aminobiphenyl],+
9,Nc1ccc2c(ccc3c4ccccc4ccc23)c1 [2-Aminochrysene],+
10,Nc1ccc2ccccc2c1S(=O)(=O)O [2-Aminonaphthalene-1-sulphonic acid],-
11,Nc1ccc2ccccc2c1 [2-Naphthylamine],+
12,O=[N+]([O-])c1ccccc1-c1ccccc1 [2-Nitrobiphenyl],+
13,"Nc1ccc(-c2ccc(N)c(Cl)c2)cc1Cl [3,3'-Dichlorobenzidine]",+
14,"COc1cc(-c2ccc(N)c(OC)c2)ccc1N [3,3'-Dimethoxybenzidine]",+
15,"Cc1cc(-c2ccc(N)c(C)c2)ccc1N [3,3'-Dimethylbenzidine]",+
16,"c1ccc2c(c1)ccc1cc3ccc4ccccc4c3nc12 [3,4,5,6-Dibenzacridine]",+
17,"c1ccc2c(c1)cc1ccc3cc4ccccc4c4ccc2c1c34 [3,4,9,10-Dibenzpyrene]",+
18,"c1ccc2c(c1)cc1ccc3cccc4ccc2c1c34 [3,4-Benzpyrene]",+
19,Nc1ccc2ccc3cccc4ccc1c2c34 [3-Aminopyrene],+
20,CC(=O)Nc1cccc2c1-c1ccccc1C2 [4-Acetylaminofluorene],-

row,Molecule,"Carcinogenicity, Lit."
1,Nc1ccc(N=Nc2ccccc2)cc1 [4-Aminoazobenzene],+
2,Nc1ccc(-c2ccccc2)cc1 [4-Aminobiphenyl],+
3,CN(C)c1ccc(N=Nc2ccccc2)cc1 [4-Dimethylaminoazobenzene],+
4,Nc1cc2c3ccccc3ccc2c2ccccc12 [6-Aminochrysene],+
5,"Cc1c2ccccc2c(C)c2ccccc12 [9,10-Dimeuthylanthracene]",+
6,Cc1ccc2cc3c(ccc4ccccc43)c3c2c1CC3 [20-Methylcholanthrene],+
7,Nc1ccccc1 [Aniline],-
8,c1ccc2cc3ccccc3cc2c1 [Anthracene],-
9,Nc1ccccc1C(=O)O [Anthranilic acid],-
10,O=C1c2ccccc2C(=O)c2ccccc21 [Anthraquinone],-
11,O=C1c2ccccc2-c2cccc3cccc1c23 [Benzathrone],-
12,Nc1ccc(-c2ccc(N)cc2)cc1 [Benzidine],+
13,c1ccc2[nH]cnc2c1 [Benzimidazole],-
14,O=C(O)c1ccccc1 [Benzoic acid],-
15,c1ccc(-c2ccccc2)cc1 [Biphenyl],-
16,ClCOCCl [Bis(Chloromethyl)ether],+
17,O=S1(=O)CCCCO1 [Butanesultone],+
18,Cc1ccc(O)c(N=Nc2c(O)cc(S(=O)(=O)O)c3ccccc23)c1 [Calmagite],-
19,O=C(O)CCCc1ccc(N(CCCl)CCCl)cc1 [Chlorambucil],+
20,NC1CCCCC1 [Cyclohexylamine],-

row,Molecule,"Carcinogenicity, Lit."
1,O=P1(N(CCCl)CCCl)NCCCO1 (stereo not shown) [Cyclophosphamide],+
2,Clc1ccc(C(c2ccc(Cl)cc2)C(Cl)(Cl)Cl)cc1 [D.D.T.],-
3,C1CCC(NC2CCCCC2)CC1 [Dicyclohexylamine],-
4,ClC1=C(Cl)[C@]2(Cl)[C@@H]3[C@@H]4C[C@@H]([C@H]5O[C@@H]45)[C@@H]3[C@@]1(Cl)C2(Cl)Cl [Dieldrin],-
5,CCN(CC)N=O [Diethylnitrosamine],+
6,CC/C(=C(/CC)c1ccc(O)cc1)c1ccc(O)cc1 [Diethylstilboestrol],+
7,CCOS(C)(=O)=O [Ethyl methanesulphonate],+
8,CN(C)P(=O)(N(C)C)N(C)C [Hexamethylphosphoramide],+
9,NN [Hydrazine],+
10,"c1ccc2cc(Nc3ccc(Nc4ccc5ccccc5c4)cc3)ccc2c1 [N,N'-Bis(2-naphthyl)-p-phenylenediamine]",-
11,CC(C(O)c1ccccc1)N(C)N=O (stereo not shown) [N-Nitrosoephedrine],+
12,c1ccc(Nc2ccc3ccccc3c2)cc1 [N-phenyl-2-naphthylamine],-
13,c1ccc2ccccc2c1 [Naphthalene],-
14,c1cc2cccc3c4cccc5cccc(c(c1)c23)c54 [Perylene],-
15,C=CCc1ccc2c(c1)OCO2 [Safrole],+
16,COc1ccc(N)cc1 [p-Anisidine],-
17,Croton oil,+
18,Cyanocobalamin [Cyanocobalamin (B12)],-
19,Cycasin acetate,+
20,Morgan's base,+
